Patent US20240208968A1, “ALPHA V BETA 6 AND ALPHA V BETA 1 INTEGRIN INHIBITORS AND USES THEREOF” (DiCE Molecules SV, Inc., priority 2021, published 2024)

Assays:
[1] = molecular target: αvβ1 (Homo sapiens, UniProt P05556+P06756); test: Solid Phase Integrin αvβ1 Assay; format: binding
Outline: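 Wells coated with 1 µg/mL recombinant TGFb1-LAP and blocked with 2% BSA/TBST, 1 mM MnCl2; αvβ1 (added at 0.2 µg/mL) and compound incubated 90 min at room temperature. Bound integrin detected by streptavidin-HRP (20 min) and TMB after Mn-containing washes; IC50 by four-parameter logistic fit.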

[2] = molecular target: αvβ6 (Homo sapiens, UniProt P06756+P18564); test: Solid Phase Integrin αvβ6 Assay; format: binding
Sequence of αvβ6 (P06756 31-992 limits assumed): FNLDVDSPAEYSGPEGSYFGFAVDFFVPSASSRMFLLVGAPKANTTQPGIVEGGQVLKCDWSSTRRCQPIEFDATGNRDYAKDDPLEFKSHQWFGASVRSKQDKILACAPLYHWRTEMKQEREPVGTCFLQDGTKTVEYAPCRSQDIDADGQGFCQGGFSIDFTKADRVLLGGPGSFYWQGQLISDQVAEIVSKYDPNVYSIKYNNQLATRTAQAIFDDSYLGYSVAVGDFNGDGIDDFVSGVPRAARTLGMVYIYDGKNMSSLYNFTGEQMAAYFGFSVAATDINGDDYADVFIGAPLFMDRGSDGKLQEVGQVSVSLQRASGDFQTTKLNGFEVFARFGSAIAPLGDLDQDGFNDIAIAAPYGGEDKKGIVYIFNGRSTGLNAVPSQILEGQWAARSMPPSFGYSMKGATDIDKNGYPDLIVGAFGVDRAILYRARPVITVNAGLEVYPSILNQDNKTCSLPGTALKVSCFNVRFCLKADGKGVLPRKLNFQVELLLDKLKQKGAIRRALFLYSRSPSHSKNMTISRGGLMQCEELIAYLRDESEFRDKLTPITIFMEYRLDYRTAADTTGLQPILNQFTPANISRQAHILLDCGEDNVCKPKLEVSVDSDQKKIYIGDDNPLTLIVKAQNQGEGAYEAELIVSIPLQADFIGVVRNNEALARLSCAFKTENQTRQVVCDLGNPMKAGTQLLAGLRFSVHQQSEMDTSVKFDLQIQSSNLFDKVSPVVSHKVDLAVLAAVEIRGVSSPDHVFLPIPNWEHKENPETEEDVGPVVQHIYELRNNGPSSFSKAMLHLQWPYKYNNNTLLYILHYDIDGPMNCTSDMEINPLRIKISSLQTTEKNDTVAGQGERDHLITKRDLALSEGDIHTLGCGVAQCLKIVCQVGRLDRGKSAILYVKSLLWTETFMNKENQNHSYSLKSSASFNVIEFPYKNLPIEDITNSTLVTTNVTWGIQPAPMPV
Sequence of αvβ6 (P18564 22-707 limits assumed): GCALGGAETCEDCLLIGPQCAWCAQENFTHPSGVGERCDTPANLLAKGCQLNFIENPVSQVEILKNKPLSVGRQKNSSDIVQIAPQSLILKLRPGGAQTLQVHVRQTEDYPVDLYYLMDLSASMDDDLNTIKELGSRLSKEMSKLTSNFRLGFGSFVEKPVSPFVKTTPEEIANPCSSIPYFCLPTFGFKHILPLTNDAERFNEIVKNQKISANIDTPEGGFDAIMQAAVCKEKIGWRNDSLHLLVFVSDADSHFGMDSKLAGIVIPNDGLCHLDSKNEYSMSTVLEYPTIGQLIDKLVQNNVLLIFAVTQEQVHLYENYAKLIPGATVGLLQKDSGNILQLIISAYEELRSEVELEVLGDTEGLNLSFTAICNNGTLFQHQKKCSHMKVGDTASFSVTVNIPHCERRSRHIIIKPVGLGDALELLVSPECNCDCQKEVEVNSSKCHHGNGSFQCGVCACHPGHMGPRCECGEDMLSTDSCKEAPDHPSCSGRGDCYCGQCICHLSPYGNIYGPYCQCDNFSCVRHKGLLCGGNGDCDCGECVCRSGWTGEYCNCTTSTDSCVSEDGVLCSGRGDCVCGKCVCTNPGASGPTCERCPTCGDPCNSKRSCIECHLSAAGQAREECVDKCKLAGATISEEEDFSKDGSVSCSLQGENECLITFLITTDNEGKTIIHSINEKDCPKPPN
Outline: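 Plates coated with 1 μg/mL recombinant TGFb1-LAP; compounds and αvβ6 (0.2 μg/mL diluted stock) incubated 1 h at room temperature in 2% BSA/TBST with 1 mM MnCl2. Bound integrin detected with streptavidin-HRP and TMB; IC50 from four-parameter logistic fits.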

Sequence of αvβ1 (P06756 31-992 limits assumed): as the sequence (P06756 31-992 limits assumed) above
Sequence of αvβ1 (P05556 21-728 limits assumed): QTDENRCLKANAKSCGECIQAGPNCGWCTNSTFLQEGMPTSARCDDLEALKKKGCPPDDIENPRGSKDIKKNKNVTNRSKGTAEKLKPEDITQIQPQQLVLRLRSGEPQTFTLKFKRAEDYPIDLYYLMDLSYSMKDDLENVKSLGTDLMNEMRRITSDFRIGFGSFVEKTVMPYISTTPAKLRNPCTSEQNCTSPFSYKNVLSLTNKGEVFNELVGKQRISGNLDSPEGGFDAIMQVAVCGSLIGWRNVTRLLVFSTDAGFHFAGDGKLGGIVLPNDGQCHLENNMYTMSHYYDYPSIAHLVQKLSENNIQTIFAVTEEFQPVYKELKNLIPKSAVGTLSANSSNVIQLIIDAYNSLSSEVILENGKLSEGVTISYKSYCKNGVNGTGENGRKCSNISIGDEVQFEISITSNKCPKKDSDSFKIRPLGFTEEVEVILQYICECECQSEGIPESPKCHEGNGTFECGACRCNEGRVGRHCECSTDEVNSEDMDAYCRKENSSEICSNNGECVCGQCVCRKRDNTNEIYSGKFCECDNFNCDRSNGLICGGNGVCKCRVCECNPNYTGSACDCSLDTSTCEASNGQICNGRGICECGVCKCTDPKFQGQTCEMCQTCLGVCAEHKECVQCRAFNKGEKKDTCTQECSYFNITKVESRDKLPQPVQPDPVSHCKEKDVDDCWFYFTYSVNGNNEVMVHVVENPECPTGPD

IC50 [1] | IC50 [2] | Compound
0.1 to 1 µM | 0.1 to 1 µM | Cc1cc([C@H](CO[C@@H]2CCCN(CCCc3ccc4c(n3)NCCC4)C2)CC(=O)O)cc(N2CCOC(C)(C)C2)c1 [Compound 581]
< 0.1 µM | < 0.1 µM | C[C@H]1OCCN(c2cccc([C@H](CC(=O)O)NC(=O)[C@@H]3CCCN(CCCc4ccc5c(n4)NCCC5)C3)c2)[C@H]1C [Compound 582]
< 0.1 µM | < 0.1 µM | C[C@@H]1OCCN(c2cccc([C@H](CC(=O)O)NC(=O)[C@@H]3CCCN(CCCc4ccc5c(n4)NCCC5)C3)c2)[C@@H]1C [Compound 583]
< 0.1 µM | < 0.1 µM | C[C@@H]1OCCN(c2cccc([C@H](CC(=O)O)NC(=O)[C@@H]3CCCN(CCCc4ccc5c(n4)NCCC5)C3)c2)[C@H]1C [Compound 584]
< 0.1 µM | < 0.1 µM | C[C@@H]1[C@@H](C)OCCN1c1cccc([C@H](CC(=O)O)NC(=O)[C@@H]2CCCN(CCCc3ccc4c(n3)NCCC4)C2)c1 [Compound 585]
< 0.1 µM | < 0.1 µM | Cc1cc(C)n(-c2cccc([C@H](CC(=O)O)NC(=O)[C@@H]3CCCN(CCCc4ccc5c(n4)NCCC5)C3)c2)c1 [Compound 586]
< 0.1 µM | < 0.1 µM | CC1(C)CN(c2cccc([C@H](CC(=O)O)NC(=O)[C@@H]3CCCN(CCCc4ccc5c(n4)NCCC5)C3)c2)CC(C)(C)C1 [Compound 587]
< 0.1 µM | < 0.1 µM | O=C(NC[C@@H](Nc1ccccc1C1CC(F)(F)C1)C(=O)O)[C@@H]1CCCN(CCCc2ccc3c(n2)NCCC3)C1 [Compound 588]
< 0.1 µM | < 0.1 µM | O=C(NC[C@@H](Nc1cccc(C2CC(F)(F)C2)c1)C(=O)O)[C@@H]1CCCN(CCCc2ccc3c(n2)NCCC3)C1 [Compound 589]
< 0.1 µM | < 0.1 µM | O=C(NC[C@@H](Nc1cccnc1C1CC(F)(F)C1)C(=O)O)[C@@H]1CCCN(CCCc2ccc3c(n2)NCCC3)C1 [Compound 593]
< 0.1 µM | < 0.1 µM | CC1(C)CN(c2cccc([C@@H](CNC(=O)[C@@H]3CCCN(CCCc4ccc5c(n4)NCCC5)C3)C(=O)O)c2)CCO1 [Compound 595]
< 0.1 µM | < 0.1 µM | CC1(C)COCCN1c1cccc([C@@H](CNC(=O)[C@@H]2CCCN(CCCc3ccc4c(n3)NCCC4)C2)C(=O)O)c1 [Compound 597]
< 0.1 µM | < 0.1 µM | CC1(C)CCCN(c2cccc([C@@H](CNC(=O)[C@@H]3CCCN(CCCc4ccc5c(n4)NCCC5)C3)C(=O)O)c2)C1 [Compound 599]
< 0.1 µM | < 0.1 µM | CC1(C)CCN(c2cccc([C@@H](CNC(=O)[C@@H]3CCCN(CCCc4ccc5c(n4)NCCC5)C3)C(=O)O)c2)CC1 [Compound 601]
< 0.1 µM | < 0.1 µM | C[C@H]1CN(c2cccc([C@H](CNC(=O)[C@@H]3CCCN(CCCc4ccc5c(n4)NCCC5)C3)C(=O)O)c2)C[C@H](C)O1 [Compound 603]
< 0.1 µM | < 0.1 µM | C[C@@H]1CN(c2cccc([C@@H](CNC(=O)[C@@H]3CCCN(CCCc4ccc5c(n4)NCCC5)C3)C(=O)O)c2)C[C@H](C)O1 [Compound 604]
< 0.1 µM | < 0.1 µM | C[C@@H]1CN(c2cccc([C@H](CNC(=O)[C@@H]3CCCN(CCCc4ccc5c(n4)NCCC5)C3)C(=O)O)c2)C[C@@H](C)O1 [Compound 605]
< 0.1 µM | 0.1 to 1 µM | CNC(=O)[C@@H]1CN(C(=O)CCCc2ccc3c(c2)NCCC3)C[C@H]1NC(=O)CC(CC(=O)O)c1ccccc1 (stereo partly drawn) [Compound 606]
< 0.1 µM | < 0.1 µM | CNC(=O)[C@H]1C[C@H](C(=O)N[C@@H](CC(=O)O)c2ccccc2)CN(CCCc2ccc3c(n2)NCCC3)C1 [Compound 607]
> 1 µM | > 1 µM | O=C(O)[C@@H](c1ccccc1)[C@@H](O)CO[C@@H]1CCCN(CCCc2ccc3c(n2)NCCC3)C1 [Compound 608]
> 1 µM | > 1 µM | O=C(O)[C@@H](c1ccccc1)[C@H](O)CO[C@@H]1CCCN(CCCc2ccc3c(n2)NCCC3)C1 [Compound 609]
> 1 µM | > 1 µM | O=C(O)C(c1ccccc1)C(O)CO[C@@H]1CCCN(CCCc2ccc3c(n2)NCCC3)C1 (stereo partly drawn) [Compound 610]
> 1 µM | > 1 µM | O=C(O)[C@H](c1ccccc1)[C@H](O)CO[C@@H]1CCCN(CCCc2ccc3c(n2)NCCC3)C1 [Compound 611]
> 1 µM | > 1 µM | O=C(O)[C@H](c1ccccc1)[C@@H](O)CO[C@@H]1CCCN(CCCc2ccc3c(n2)NCCC3)C1 [Compound 612]
< 0.1 µM | < 0.1 µM | O=C(O)C[C@H](NC(=O)[C@@H]1CCCN(CCCc2ccc3c(n2)NCCC3)C1)c1ccc2c(c1)OCC2 [Compound 613]
< 0.1 µM | < 0.1 µM | O=C(O)C[C@H](NC(=O)[C@@H]1CCCN(CCCc2ccc3c(n2)NCCC3)C1)c1cccc2c1OCO2 [Compound 614]

IC50 [1] | IC50 [2] | Compound
< 0.1 µM | < 0.1 µM | O=C(O)C[C@H](NC(=O)[C@@H]1CCCN(CCCc2ccc3c(n2)NCCC3)C1)c1cccc2c1CCO2 [Compound 615]
< 0.1 µM | < 0.1 µM | O=C(O)C[C@H](NC(=O)[C@@H]1CCCN(CCCc2ccc3c(n2)NCCC3)C1)c1cnn(-c2ccccc2)c1 [Compound 616]
< 0.1 µM | < 0.1 µM | C[C@@H]1CN(c2cccc([C@H](CC(=O)O)NC(=O)[C@@H]3CCCN(CCCc4ccc5c(n4)NCCC5)C3)c2)C[C@H](C)O1 [Compound 617]
< 0.1 µM | < 0.1 µM | C[C@@H]1CN(c2cccc([C@H](CC(=O)O)NC(=O)[C@@H]3CCCN(CCCc4ccc5c(n4)NCCC5)C3)c2)C[C@@H](C)O1 [Compound 618]
< 0.1 µM | < 0.1 µM | O=C(NC[C@H](C(=O)O)c1cccc2cn([C@H]3CCC(F)(F)C3)nc12)[C@@H]1CCCN(CCCc2ccc3c(n2)NCCC3)C1 [Compound 619]
< 0.1 µM | < 0.1 µM | O=C(NC[C@H](C(=O)O)c1cncc(-c2ccccc2)c1)[C@@H]1CCCN(CCCc2ccc3c(n2)NCCC3)C1 [Compound 620]
< 0.1 µM | < 0.1 µM | O=C(NC[C@H](C(=O)O)c1cccc(-c2ccccc2C(F)(F)F)c1)[C@@H]1CCCN(CCCc2ccc3c(n2)NCCC3)C1 [Compound 621]
0.1 to 1 µM | 0.1 to 1 µM | O=C(NC[C@H](C(=O)O)c1ccc(F)c(-c2ccccc2)c1F)[C@@H]1CCCN(CCCc2ccc3c(n2)NCCC3)C1 [Compound 622]
< 0.1 µM | < 0.1 µM | O=C(NC[C@H](C(=O)O)c1cccc2cn([C@@H]3CCC(F)(F)C3)nc12)[C@@H]1CCCN(CCCc2ccc3c(n2)NCCC3)C1 [Compound 623]
0.1 to 1 µM | > 1 µM | O=C(NC[C@@H](C(=O)O)c1cccc2cn([C@H]3CCC(F)(F)C3)nc12)[C@@H]1CCCN(CCCc2ccc3c(n2)NCCC3)C1 [Compound 624]
> 1 µM | 0.1 to 1 µM | O=C(NC[C@@H](C(=O)O)c1cccc(-c2ccccc2C(F)(F)F)c1)[C@@H]1CCCN(CCCc2ccc3c(n2)NCCC3)C1 [Compound 625]
< 0.1 µM | < 0.1 µM | O=C(NC[C@@H](C(=O)O)c1ccc(F)c(-c2ccccc2)c1F)[C@@H]1CCCN(CCCc2ccc3c(n2)NCCC3)C1 [Compound 626]
< 0.1 µM | < 0.1 µM | O=C(NC[C@@H](C(=O)O)c1cncc(-c2ccccc2)c1)[C@@H]1CCCN(CCCc2ccc3c(n2)NCCC3)C1 [Compound 627]
< 0.1 µM | < 0.1 µM | O=C(O)C(CNC(=O)[C@@H]1CCCN(CCCc2ccc3c(n2)NCCC3)C1)c1cc(-c2ccccc2)ccn1 (stereo partly drawn) [Compound 628]
> 1 µM | 0.1 to 1 µM | O=C(NC[C@H](C(=O)O)c1cc(F)cc(-c2cccc(F)c2)c1)[C@@H]1CCCN(CCCc2ccc3c(n2)NCCC3)C1 [Compound 629]
> 1 µM | > 1 µM | C[C@@H]1C[C@@H](C(=O)NC[C@H](C(=O)O)c2cccc(-c3ccccc3)c2)CN(CCCc2ccc3c(n2)NCCC3)C1 [Compound 630]
< 0.1 µM | < 0.1 µM | C[C@H]1C[C@@H](C(=O)NC[C@H](C(=O)O)c2cccc(-c3ccccc3)c2)CN(CCCc2ccc3c(n2)NCCC3)C1 [Compound 631]
0.1 to 1 µM | 0.1 to 1 µM | C[C@@H]1C[C@@H](C(=O)NC[C@H](C(=O)O)c2ccc3ccccc3c2)CN(CCCc2ccc3c(n2)NCCC3)C1 [Compound 632]
< 0.1 µM | < 0.1 µM | C[C@H]1C[C@@H](C(=O)NC[C@H](C(=O)O)c2ccc3ccccc3c2)CN(CCCc2ccc3c(n2)NCCC3)C1 [Compound 633]
0.1 to 1 µM | 0.1 to 1 µM | C[C@@H]1C[C@H](C(=O)NC[C@H](C(=O)O)c2ccc3ccccc3c2)CN(CCCc2ccc3c(n2)NCCC3)C1 [Compound 634]
0.1 to 1 µM | 0.1 to 1 µM | C[C@H]1C[C@H](C(=O)NC[C@H](C(=O)O)c2ccc3ccccc3c2)CN(CCCc2ccc3c(n2)NCCC3)C1 [Compound 635]
< 0.1 µM | < 0.1 µM | O=C(NC[C@@H](C(=O)O)c1cc(F)cc(-c2cccc(F)c2)c1)[C@@H]1CCCN(CCCc2ccc3c(n2)NCCC3)C1 [Compound 636]
0.1 to 1 µM | < 0.1 µM | C[C@@H]1C[C@H](C(=O)NC[C@H](C(=O)O)c2cccc(-c3ccccc3)c2)CN(CCCc2ccc3c(n2)NCCC3)C1 [Compound 637]
< 0.1 µM | < 0.1 µM | C[C@H]1C[C@H](C(=O)NC[C@H](C(=O)O)c2cccc(-c3ccccc3)c2)CN(CCCc2ccc3c(n2)NCCC3)C1 [Compound 638]
0.1 to 1 µM | 0.1 to 1 µM | C[C@@H]1C[C@@H](C(=O)NC[C@@H](C(=O)O)c2ccc3ccccc3c2)CN(CCCc2ccc3c(n2)NCCC3)C1 [Compound 639]
